The subject of one data set is IFN-γ production. Kind of data set: IFN-γ production by allogeneic T cell activation in the mixed leukocyte response (MLR). The class given is cell-based. The conditions noted are these: MLR of allogeneic PBMC from 2 different donors, 5 days, IFN-γ by ELISA, 50% inhibition of IFN-γ production. The method, then:
Immature dendritic cells (DC) were prepared as described in Romani, N. et al., J. Immunol. Meth. 196:137. IFN-γ production by allogeneic T cell activation in the mixed leukocyte response (MLR) was determined as described in Penna, G., et al., J. Immunol., 164: 2405-2411 (2000).
Briefly, peripheral blood mononuclear cells (PBMC) were separated from buffy coats by Ficoll gradient and the same number (3×105) of allogeneic PBMC from 2 different donors were co-cultured in 96-well flat-bottom plates. After 5 days, IFN-γ production in the MLR assay was measured by ELISA and the results expressed as amount (nM) of test compound required to induce 50% inhibition of IFN-γ production (IC50) (Table 1).

Data set [1] in a line: Determination of maximum tolerated dose (MTD), highest oral dose without hypercalcemia (serum calcium). Format: in vivo. To be noted: in vivo, po. The method, then: The maximum tolerated dose of the vitamin D3 compounds of the invention were determined in eight week-old female C57BL/6 mice (3 mice/group) dosed orally (0.1 ml/mouse) with various concentrations of Vitamin D3 analogs daily for four days. Analogs were formulated in miglyol for a final concentration of 10, 30, 100 and 300 μg/kg when given at 0.1 ml/mouse p.o. daily. Blood for serum calcium assay was drawn by tail bleed on day five, the final day of the study. Serum calcium levels were determined using a colorimetric assay (Sigma Diagnostics, procedure no. 597). The highest dose of analog tolerated without inducing hypercalcemia (serum calcium >10.7 mg/dl) was taken as the maximum tolerated does (MTD).

Setting [2] is: mouse, eight week-old female C57BL/6 mice, p.o. daily for four days in miglyol, highest dose without hypercalcemia (serum calcium >10.7 mg/dl) on day five, read-out: MTD (mice).

Like-named read-outs stand apart in the source and are kept apart here.

Consider `C=C1/C(=C\C=C2/CCC[C@@]3(C)C2CC[C@@H]3C(C)(CCCC(C)(C)O)CCCC(C)(C)O)CC(O)C[C@@H]1O` (stereo partly shown) [Compound 1, 1,25-Dihydroxy-20-(4-hydroxy-4-methyl-pentyl)cholecalciferol], for which the IC50 with IFN-γ production (120 h) stood at 0.518 nM. Also, the MTD at 4 days in data set [1] (setting [2]) is 3 µg/kg.

Turning to `CC(C)(O)CCCC(C)(CCCC(C)(C)O)[C@H]1CCC2/C(=C/C=C3/CC(O)C[C@H](O)C3)CCC[C@@]21C` (stereo partly shown) [Compound 2, 1,25-Dihydroxy-20-(4-hydroxy-4-methyl-pentyl)-19-nor-cholecalciferol], in the data set on IFN-γ production (120 h), the IC50 was found to be 0.744 nM. Moreover, in data set [1] (setting [2]), the MTD at 4 days is < 30 µg/kg. In turn, `C=C1/C(=C\C=C2/CCC[C@@]3(C)C2CC[C@@H]3C(C)(CCCC(C)(C)O)CCCC(C)(C)O)CC(O)C[C@@H]1F` (stereo partly drawn) [Compound 3, 1α-Fluoro-25-hydroxy-20-(4-hydroxy-4-methyl-pentyl)-cholecalciferol] yielded a half-maximal inhibitory concentration (IC50) in the data set with IFN-γ production (120 h) of 6.27 nM. For the same molecule, the MTD at 4 days in data set [1] (female, C57BL/6, mouse) is > 300 µg/kg. On to `C=C1/C(=C\C=C2/CCC[C@@]3(C)C2CC[C@@H]3[C@](C)(CC#CC(O)(C(F)(F)F)C(F)(F)F)CCCC(C)(C)O)CC(O)C[C@@H]1O` (stereo partly drawn) [Compound 4, (20S)-1,25-Dihydroxy-20-(5,5,5-trifluoro-4-hydroxy-4-trifluoromethyl-pent-2-ynyl)cholecalciferol], for which, in the data set on IFN-γ production (120 h), the IC50 was 0.049 nM. Also, in data set [1] (setting [2]), the MTD at 4 days was 0.3 µg/kg.

With `C=C1/C(=C\C=C2/CCC[C@@]3(C)C2CC[C@@H]3[C@@](C)(CC#CC(O)(C(F)(F)F)C(F)(F)F)CCCC(C)(C)O)C[C@@H](O)C[C@@H]1O` (stereo partly drawn) [Compound 7, (20R)-1,25-Dihydroxy-20-(5,5,5-trifluoro-4-hydroxy-4-trifluoromethyl-pent-2-ynyl)-cholecalciferol], half-maximal inhibition with IFN-γ production (120 h) (IC50) was put at 0.038 nM. In the case of `[2H]C([2H])([2H])C(O)(CCCC(C)(C/C=C/C(O)(C(F)(F)F)C(F)(F)F)[C@H]1CCC2/C(=C/C=C3/C[C@@H](O)C[C@H](O)C3=C)CCC[C@@]21C)C([2H])([2H])[2H]` (stereo partly drawn) [Compound 19, 1,25-Dihydroxy-20S-20-(4-hydroxy-5,5,5-trideutero-4-trideuteromethyl-pentyl)-23E-ene-26,27-hexafluorocholecalciferol], the MTD at 4 days in data set [1] (setting [2]) is 0.1 µg/kg. On the same count and under the same terms, the value for `[2H]C([2H])([2H])C(O)(CCCC(C)(C/C=C/C(O)(C(F)(F)F)C(F)(F)F)[C@H]1CCC2/C(=C/C=C3C[C@@H](O)C[C@H](O)C3)CCC[C@@]21C)C([2H])([2H])[2H]` (stereo partly drawn) [Compound 20, 1,25-Dihydroxy-20S-20-(4-hydroxy-5,5,5-trideutero-4-trideuteromethyl-pentyl)-23E-ene-26,27-hexafluoro-19-nor-cholecalciferol] was 0.1 µg/kg. On to `[2H]C([2H])([2H])C(O)(CCCC(C)(CC#CC(O)(C(F)(F)F)C(F)(F)F)[C@H]1CCC2/C(=C/C=C3/C[C@@H](O)C[C@H](O)C3=C)CCC[C@@]21C)C([2H])([2H])[2H]` (stereo partly drawn) [Compound 22, 1,25-Dihydroxy-20S-20-(4-hydroxy-5,5,5-trideutero-4-trideuteromethyl-pentyl)-23-yne-26,27-hexafluorocholecalciferol], for which the MTD at 4 days in data set [1] (setting [2]) is 0.3 µg/kg. Turning to `[2H]C([2H])([2H])C(O)(CCCC(C)(CC#CC(O)(C(F)(F)F)C(F)(F)F)[C@H]1CCC2/C(=C/C=C3C[C@@H](O)C[C@H](O)C3)CCC[C@@]21C)C([2H])([2H])[2H]` (stereo partly drawn) [Compound 23, 1,25-Dihydroxy-20S-20-(4-hydroxy-5,5,5-trideutero-4-trideuteromethyl-pentyl)-23-yne-26,27-hexafluoro-19-nor-cholecalciferol], the MTD at 4 days in data set [1] (setting [2]) is 1 µg/kg.

In the case of `[2H]C([2H])([2H])C(O)(CCC[C@](C)(C/C=C\C(O)(C(F)(F)F)C(F)(F)F)[C@H]1CCC2/C(=C/C=C3C[C@@H](O)C[C@H](O)C3)CCC[C@@]21C)C([2H])([2H])[2H]` (stereo partly drawn) [Compound 26, 1,25-Dihydroxy-20R-20-(4-hydroxy-5,5,5-trideutero-4-trideuteromethyl-pentyl)-23Z-ene-26,27-hexafluoro-19-nor-cholecalciferol], the MTD at 4 days in data set [1] (setting [2]) was 0.3 µg/kg. On to `[2H]C([2H])([2H])C(O)(CCC[C@](C)(C/C=C\C(O)(C(F)(F)F)C(F)(F)F)[C@H]1CCC2/C(=C/C=C3/C[C@@H](O)C[C@H](F)C3=C)CCC[C@@]21C)C([2H])([2H])[2H]` (stereo partly drawn) [Compound 27, 1α-Fluoro-25-hydroxy-20R-20-(4-hydroxy-5,5,5-trideutero-4-trideuteromethyl-pentyl)-23Z-ene-26,27-hexafluorocholecalciferol], for which, in the data set on IFN-γ production (120 h), the IC50 is 0.307 nM. Take `[2H]C([2H])([2H])C(O)(CCC[C@](C)(C/C=C/C(O)(C(F)(F)F)C(F)(F)F)[C@H]1CCC2/C(=C/C=C3/C[C@@H](O)C[C@H](O)C3=C)CCC[C@@]21C)C([2H])([2H])[2H]` (stereo partly drawn) [Compound 28, 1,25-Dihydroxy-20R-20-(4-hydroxy-5,5,5-trideutero-4-trideuteromethyl-pentyl)-23E-ene-26,27-hexafluorocholecalciferol]: the MTD at 4 days in data set [1] (setting [2]) is 0.3 µg/kg.

For the molecule `[2H]C([2H])([2H])C(O)(CCC[C@](C)(C/C=C/C(O)(C(F)(F)F)C(F)(F)F)[C@H]1CCC2/C(=C/C=C3C[C@@H](O)C[C@H](O)C3)CCC[C@@]21C)C([2H])([2H])[2H]` (stereo partly drawn) [Compound 29, 1,25-Dihydroxy-20R-20-(4-hydroxy-5,5,5-trideutero-4-trideuteromethyl-pentyl)-23E-ene-26,27-hexafluoro-19-nor-cholecalciferol], in data set [1] (setting [2]), the MTD at 4 days was 0.1 µg/kg. `[2H]C([2H])([2H])C(O)(CCC[C@](C)(C/C=C/C(O)(C(F)(F)F)C(F)(F)F)[C@H]1CCC2/C(=C/C=C3/C[C@@H](O)C[C@H](F)C3=C)CCC[C@@]21C)C([2H])([2H])[2H]` (stereo partly drawn) [Compound 30, 1α-Fluoro-25-hydroxy-20R-20-(4-hydroxy-5,5,5-trideutero-4-trideuteromethyl-pentyl)-23E-ene-26,27-hexafluorocholecalciferol]: the IC50 with IFN-γ production (120 h) worked out at 0.012 nM. Consider `[2H]C([2H])([2H])C(O)(CCC[C@](C)(CC#CC(O)(C(F)(F)F)C(F)(F)F)[C@H]1CCC2/C(=C/C=C3/C[C@@H](O)C[C@H](O)C3=C)CCC[C@@]21C)C([2H])([2H])[2H]` (stereo partly drawn) [Compound 31, 1,25-Dihydroxy-20R-20-(4-hydroxy-5,5,5-trideutero-4-trideuteromethyl-pentyl)-23-yne-26,27-hexafluorocholecalciferol], for which the MTD at 4 days in data set [1] (setting [2]) is 0.3 µg/kg. On the same count and under the same terms, the value for `[2H]C([2H])([2H])C(O)(CCC[C@](C)(CC#CC(O)(C(F)(F)F)C(F)(F)F)[C@H]1CCC2/C(=C/C=C3C[C@@H](O)C[C@H](O)C3)CCC[C@@]21C)C([2H])([2H])[2H]` (stereo partly drawn) [Compound 32, 1,25-Dihydroxy-20R-20-(4-hydroxy-5,5,5-trideutero-4-trideuteromethyl-pentyl)-23-yne-26,27-hexafluoro-19-nor-cholecalciferol] was 0.3 µg/kg. For `[2H]C([2H])([2H])C(O)(CCC[C@](C)(CC#CC(O)(C(F)(F)F)C(F)(F)F)[C@H]1CCC2/C(=C/C=C3/C[C@@H](O)C[C@H](F)C3=C)CCC[C@@]21C)C([2H])([2H])[2H]` (stereo partly drawn) [Compound 33, 1α-Fluoro-25-hydroxy-20R-20-(4-hydroxy-5,5,5-trideutero-4-trideuteromethyl-pentyl)-23-yne-26,27-hexafluorocholecalciferol], in the data set with IFN-γ production (120 h), half-maximal inhibition (IC50) required 0.0132 nM. In the data set on IFN-γ production, “(20S)-1,25-Dihydroxy-20-[(2E)-5,5,5-trifluoro-4-hydroxy-4-trifluoromethyl-pent-2-enyl]-cholecalciferol [Compound 6]” returned a concentration for half-maximal inhibition (IC50) of 0.044 nM.

Source of the values: patent US20090099140A1, “20-Alkyl, Gemini Vitamin D3 Compounds and Methods of Use Thereof” (BioXell S.p.A., priority 2005, published 2009).
